# Reference: paper PMC11513920, “Building Metabolically Stable and Potent Anti-HIV Thioether-Lipid Analogues of Tenofovir Exalidex: A thorough Pharmacological Analysis” (Journal of Medicinal Chemistry, 2024)
# Several values for one entry are separate records, joined by “and”; a condition that tells them apart may be missing. Equal values may be shown once.
# Columns and labels:
# [1] = Cellular cytotoxicity (cell viability, CellTiter 96 or resazurin); conditions: human, CC50, HEK293T cells, compounds formulated with HSA (5:1)
# [2] = Mouse plasma pharmacokinetics after intravenous dose; assay type: in vivo, male C57BL/6 mice; conditions: i.v. 3 mg/kg
# Method: (§1) To compare the in vivo PK profiles to TXL and our previously reported drug lead 1 (Tables S19 and S26),[39] one group of male C57BL/6 mice were administered a single oral dose (p.o., 10 mg/kg) of 2a, 16g, or 16h (refer to Experimental Methods). Additionally, a separate group of mice were given a single intravenous dose (i.v., 3 mg/kg) of each prodrug to obtain plasma clearance (Cl), volume of distribution (Vd), and oral bioavailability data. Blood was sampled at 8 time points over 8 h (i.v.) or 24 h (p.o.) postdose, and plasma was isolated via centrifugation. Tissues (liver, kidney, and brain) were also harvested and homogenized at 3 time points over 24 h after oral dose. The concentrations of prodrug and TFV metabolite in each of these samples was then quantified using LC–MS/MS methodology.
# (§2) Healthy male C57BL/6 mice (8–12 weeks old) weighing 20–30 g were procured from Global, India. Three mice were housed in each cage. Temperature and humidity were maintained at 22 ± 3 °C and 30–70%, respectively, and illumination was controlled to provide for 12 h light and 12 h dark cycles. Temperature and humidity were recorded by an autocontrolled data logger system. All animals were provided a laboratory rodent diet (Envigo Research private Ltd., Hyderabad). Reverse osmosis H2O treated with ultraviolet light was provided ad libitum.
# (§3) Male mice were divided into two groups (n = 18 total, n = 9 per treatment group, n = 3 per time point, sparse sampling). One group was intravenously administered a solution of 2a, 16g, and 16h in 10% PEG-300, 10% Solutol HS-15, and 80% saline at 3 mg/kg with a dosing volume of 5 mL/kg. The second group was administered a solution of 2a, 16g, and 16h in 10% EtOH and 90% olive oil at 10 mg/kg via oral gavage with a dosing volume of 10 mL/kg.
# (§4) Blood samples (approximately 60 μL) were collected from retro-orbital plexus under light isoflurane anesthesia such that the samples were obtained predose, as well as at eight time points post dose: 0.1, 0.25, 0.5, 1, 2, 4, 6, and 8 (i.v.) and 0.25, 0.5, 1, 2, 4, 8, 12, and 24 h (p.o.). Immediately after blood collection, plasma samples were harvested by centrifugation at 4000 rpm and 4 °C for 10 min and stored at −70 °C until LC–MS/MS analysis. Following blood collection from p.o. group, liver, kidney, and brain samples were collected (n = 3 per treatment group per time point) at 1, 4, and 24 h post dose. After isolation, tissue samples were rinsed three times with ice-cold saline and dried with blotting paper. Next, the tissue samples were homogenized using ice-cold PBS (pH = 7.4), and the resulting homogenates were stored below −70 °C until LC-MS/MS analysis. The total homogenate volume was 3 times the brain weight and 5 times the liver and kidney weight.
# (§5) Areas under the concentration–time curves (AUC0–8h and AUC0–24h) were calculated via the linear trapezoidal rule[65] using GraphPad Prism v9. Furthermore, terminal elimination rate constants k were determined using linear regression (slope = −k) of the terminal portion of semilog-transformed concentration–time curves (Figures S44, S45, S47, S48, S50, and S51).
# [3] = Mouse liver microsome stability; conditions: CD-1, mouse, microsomes
# Method: Human liver microsomes (HLMs, 20 mg/mL) and CD-1 mouse liver microsomes (MLMs, 20 mg/mL) were purchased from Xenotech. NADPH was purchased from Sigma-Aldrich and prepared in 10 mM stock solutions of distilled H2O (Invitrogen UltraPure). […] Test compounds and positive controls were initially dissolved in MeOH to make 10 mM stock solutions. Sample solutions were then further diluted in 70/30 MeOH/H2O to 500 μM. Next, the reactions were prepared by mixing human or mouse liver microsomes (55 μL) with potassium phosphate buffer (100 mM, 928 μL) in 1.5 mL Eppendorf tubes. The test compounds (6.6 μL of 500 μM solution) were subsequently added to the suspensions, and the reaction mixtures were incubated at 37 °C for 5 min. Afterward, the liver microsome reactions were initiated with 110 μL of 10 mM NADPH and further incubated at 37 °C for the designated time course of the study. […] Each test compound was run in tandem with positive and negative control experiments for quality assurance. Positive control reactions were conducted at a final volume of 550 μL for a single run of each time point.
# For both LM and plasma stability assays, each data point was analyzed in duplicate using in-between blank washes to avoid carry over and to equilibrate the column for the subsequent runs. Averages of these duplicate for individual compounds at each time point were then normalized to the data at 0 min, representing 100% test compound remaining or 0% metabolism. Half-lives (t1/2) were calculated by plotting ln of % test compound remaining versus time and performing linear regression to determine slope.
# Metabolic Stability Assays
# Liver Microsome Stability
# Liver Microsome Stability Assay Setup Example
# Quenching Mixture: 100 µL MeOH with ISTD (2 µM d5-7-ethoxycoumarin).
# Final Volume After Quenching: 200 µL (100 µL from reaction mixture + 100 µL quencher
# solution; ISTD final concentration of 1.0 µM).
# [4] = Mouse plasma pharmacokinetics after oral dose; assay type: in vivo, male C57BL/6 mice
# Method: as §1, §2, §3, §4, §5
# [5] = male, C57BL/6, mouse, iv, prodrug
# [6] = male, C57BL/6, mouse, po, plasma, prodrug, p.o. 10 mg/kg
smiles,measurement,setting,value
C[C@H](Cn1cnc2c(N)ncnc21)OCP(=O)(O)OCCCSCCCCCCCCCCCCC1CCCCC1.N [16h],CC50 at 48 h,[1],48 µM
same,k (terminal elimination rate constant),[2]; 3 mg/kg,0.5743 and 0.574
same,Vd at 8 h,"[2]; male, C57BL/6, mouse, iv",8.97 L/kg
same,clearance,"[2]; male, C57BL/6, mouse, iv",85.8 mL/min/kg
same,half-life at 8 h,"[2]; male, C57BL/6, mouse, iv",72.6 min
same,concentration at 0.1 h,"[2]; male, C57BL/6, mouse, iv, 0.1 h, read-out: mean prodrug concentration in plasma",2380 ng/mL
same,concentration at 0.25 h,"[2]; male, C57BL/6, mouse, iv, 0.25 h, read-out: mean prodrug concentration in plasma",522 ng/mL
same,concentration at 0.5 h,"[2]; male, C57BL/6, mouse, iv, 0.5 h, read-out: mean prodrug concentration in plasma",406 ng/mL
same,concentration at 1 h,"[2]; male, C57BL/6, mouse, iv, 1 h, read-out: mean prodrug concentration in plasma",127 ng/mL
same,concentration at 2 h,"[2]; male, C57BL/6, mouse, iv, 2 h, read-out: mean prodrug concentration in plasma",17.4 ng/mL
same,concentration at 4 h,"[2]; male, C57BL/6, mouse, iv, 4 h, read-out: mean prodrug concentration in plasma",8.98 ng/mL
same,concentration at 6 h,"[2]; male, C57BL/6, mouse, iv, 6 h, read-out: mean prodrug concentration in plasma",3.65 ng/mL
same,concentration at 8 h,"[2]; male, C57BL/6, mouse, iv, 8 h, read-out: mean prodrug concentration in plasma",1.41 ng/mL
same,Cmax at 8 h,[2]; [5],2380 ng/mL
same,Tmax at 8 h,[2]; [5],6 min
same,AUC(0-t) at 8 h,"[2]; male, C57BL/6, mouse, iv, prodrug, read-out: AUC0–8h",583 ng·h/mL
same,half-life at 3 μM,[3],> 120 min
same,"remaining at 2 h, 3 μM",[3],> 95%
same,bioavailability,"[4]; male, C57BL/6, mouse, plasma, oral, p.o. 10 mg/kg vs i.v. 3 mg/kg, read-out: %F (oral bioavailability)",55%
same,bioavailability at 24 h,"[4]; male, C57BL/6, mouse, plasma, po, p.o. 10 mg/kg vs i.v. 3 mg/kg, read-out: %F (oral bioavailability)",54.9%
same,concentration at 0.25 h,"[4]; male, C57BL/6, mouse, plasma, po, p.o. 10 mg/kg, 0.25 h, read-out: mean prodrug concentration in plasma",48.9 ng/mL
same,concentration at 0.5 h,"[4]; male, C57BL/6, mouse, plasma, po, p.o. 10 mg/kg, 0.5 h, read-out: mean prodrug concentration in plasma",79.1 ng/mL
same,concentration at 1 h,"[4]; male, C57BL/6, mouse, plasma, po, p.o. 10 mg/kg, 1 h, read-out: mean prodrug concentration in plasma",140 ng/mL
same,concentration at 2 h,"[4]; male, C57BL/6, mouse, plasma, po, p.o. 10 mg/kg, 2 h, read-out: mean prodrug concentration in plasma",195 ng/mL
same,concentration at 4 h,"[4]; male, C57BL/6, mouse, plasma, po, p.o. 10 mg/kg, 4 h, read-out: mean prodrug concentration in plasma",59.2 ng/mL
same,concentration at 8 h,"[4]; male, C57BL/6, mouse, plasma, po, p.o. 10 mg/kg, 8 h, read-out: mean prodrug concentration in plasma",36.1 ng/mL
same,concentration at 12 h,"[4]; male, C57BL/6, mouse, plasma, po, p.o. 10 mg/kg, 12 h, read-out: mean prodrug concentration in plasma",38.2 ng/mL
same,concentration at 24 h,"[4]; male, C57BL/6, mouse, plasma, po, p.o. 10 mg/kg, 24 h, BLQ = below LLOQ (0.58 ng/mL 2a, 0.62 ng/mL 16g), read-out: mean prodrug concentration in plasma",0.87 ng/mL
same,half-life,"[4]; male, C57BL/6, mouse, po, plasma, p.o. 10 mg/kg",184 min
same,Cmax at 24 h,[4]; [6],195 ng/mL
same,Tmax at 24 h,[4]; [6],2 h
same,AUC(0-t) at 24 h,"[4]; male, C57BL/6, mouse, po, plasma, prodrug, p.o. 10 mg/kg, read-out: AUC0–24h",1070 ng·h/mL
same,mean TFV concentration in plasma,"[4]; p.o. 10 mg/kg of prodrug, 0.25 h, LLOQ 4.84 ng/mL",BLQ
same,Vd,"[4]; plasma, p.o. 10 mg/kg",22.8 L/kg
same,k (terminal elimination rate constant),"[4]; plasma, p.o. 10 mg/kg, 10 mg/kg",0.2258 and 0.226
